Source: the supplement of paper PMC10307832

Assays:
Experiment in all cases: relative viability (nuclei count vs DMSO), 5 days (fraction); higher = more cells survive
[1] = compound: Cn1cc(-c2cnn3c(N)c(Br)c([C@@H]4CCCNC4)nc23)cn1 + CS(=O)(=O)N1CCN(Cc2cc3nc(-c4cccc5[nH]ncc45)nc(N4CCOCC4)c3s2)CC1 [Pictilisib] (partner 1 µM)
How it was run: (§1)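 Lung cancer cell lines were seeded in 1536-well plates and dosed by pin tool the next day, with either a single drug or a fixed anchor-drug dose combined with five library-drug doses (not always all listed) spaced in √10 steps. Five days later, one step fixed the cells and stained their nuclei (final 0.05% Triton X-100, 1% formaldehyde, 1 ug/ml Hoechst), and nuclei were counted on 4× images. Relative viability is the nuclei count in treated wells divided by the count in vehicle wells, and each value is the median of duplicate plates.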

[2] = compound: Cn1cc(-c2cnn3c(N)c(Br)c([C@@H]4CCCNC4)nc23)cn1 + Cc1nc(NC(=O)N2CCC[C@H]2C(N)=O)sc1-c1ccnc(C(C)(C)C(F)(F)F)c1 [Alpelisib] (partner 2 µM)
How it was run: as §1

[3] = compound: Cn1cc(-c2cnn3c(N)c(Br)c([C@@H]4CCCNC4)nc23)cn1 + N=C(N)NC(=N)NCCc1ccccc1 [Phenformin] (partner 250 µM)
How it was run: as §1

[4] = compound: Cn1cc(-c2cnn3c(N)c(Br)c([C@@H]4CCCNC4)nc23)cn1 + NC(=O)Nc1cc(-c2cccc(F)c2)sc1C(=O)N[C@H]1CCCNC1 [AZD7762] (partner 0.2 µM)
How it was run: as §1

NCI-H1437 was tested, and the relative viability ([1]; first compound 0.05 µM) was 0.438, the relative viability ([1]; first compound 0.1581 µM) was 0.411 and the relative viability ([1]; first compound 0.5 µM) was 0.418. The relative viability ([1]; first compound 1.581 µM) was 0.292, the relative viability ([1]; first compound 5 µM) was 0.306 and the relative viability ([2]; first compound 0.05 µM) was 1.05. The relative viability ([2]; first compound 0.1581 µM) was 1.02, the relative viability ([2]; first compound 0.5 µM) was 0.795 and the relative viability ([2]; first compound 1.581 µM) was 0.576. It also gave a relative viability ([2]; first compound 5 µM) of 0.761, a relative viability ([3]; first compound 0.05 µM) of 0.272 and a relative viability ([3]; first compound 0.1581 µM) of 0.296. The relative viability ([3]; first compound 0.5 µM) was 0.32, the relative viability ([3]; first compound 1.581 µM) was 0.214 and the relative viability ([3]; first compound 5 µM) was 0.229. It also gave a relative viability ([4]; first compound 0.05 µM) of 1.11, a relative viability ([4]; first compound 0.1581 µM) of 1.18 and a relative viability ([4]; first compound 0.5 µM) of 1.08. It also gave a relative viability ([4]; first compound 1.581 µM) of 1.01 and a relative viability ([4]; first compound 5 µM) of 0.889.

NCI-H1651 showed a relative viability ([1]; first compound 0.05 µM) of 0.662, a relative viability ([1]; first compound 0.1581 µM) of 0.613 and a relative viability ([1]; first compound 0.5 µM) of 0.607. It also gave a relative viability ([1]; first compound 1.581 µM) of 0.283, a relative viability ([1]; first compound 5 µM) of 0.312 and a relative viability ([2]; first compound 0.05 µM) of 1.08. The relative viability ([2]; first compound 0.1581 µM) was 1, the relative viability ([2]; first compound 0.5 µM) was 1.01 and the relative viability ([2]; first compound 1.581 µM) was 0.479. The relative viability ([2]; first compound 5 µM) was 0.434, the relative viability ([3]; first compound 0.05 µM) was 0.331 and the relative viability ([3]; first compound 0.1581 µM) was 0.336. It also gave a relative viability ([3]; first compound 0.5 µM) of 0.318, a relative viability ([3]; first compound 1.581 µM) of 0.223 and a relative viability ([3]; first compound 5 µM) of 0.173. The relative viability ([4]; first compound 0.05 µM) was 0.436, the relative viability ([4]; first compound 0.1581 µM) was 0.407 and the relative viability ([4]; first compound 0.5 µM) was 0.387. For the same cell line, the relative viability ([4]; first compound 1.581 µM) was 0.378 and the relative viability ([4]; first compound 5 µM) was 0.219.

For NCI-H1666, the relative viability ([1]; first compound 0.05 µM) was 0.657, the relative viability ([1]; first compound 0.1581 µM) was 0.429 and the relative viability ([1]; first compound 0.5 µM) was 0.338. For the same cell line, the relative viability ([1]; first compound 1.581 µM) was 0.464, the relative viability ([1]; first compound 5 µM) was 0.413 and the relative viability ([2]; first compound 0.05 µM) was 1.02. It also gave a relative viability ([2]; first compound 0.1581 µM) of 1.01, a relative viability ([2]; first compound 0.5 µM) of 0.853 and a relative viability ([2]; first compound 1.581 µM) of 0.807. It also gave a relative viability ([2]; first compound 5 µM) of 0.785, a relative viability ([3]; first compound 0.05 µM) of 0.536 and a relative viability ([3]; first compound 0.1581 µM) of 0.552. For the same cell line, the relative viability ([3]; first compound 0.5 µM) was 0.573, the relative viability ([3]; first compound 1.581 µM) was 0.549 and the relative viability ([3]; first compound 5 µM) was 0.593. For the same cell line, the relative viability ([4]; first compound 0.05 µM) was 0.78, the relative viability ([4]; first compound 0.1581 µM) was 0.82 and the relative viability ([4]; first compound 0.5 µM) was 0.813. It also gave a relative viability ([4]; first compound 1.581 µM) of 0.845 and a relative viability ([4]; first compound 5 µM) of 0.861.

NCI-H1734 was tested, and the relative viability ([1]; first compound 0.05 µM) was 0.506, the relative viability ([1]; first compound 0.1581 µM) was 0.46 and the relative viability ([1]; first compound 0.5 µM) was 0.475. For the same cell line, the relative viability ([1]; first compound 1.581 µM) was 0.382, the relative viability ([1]; first compound 5 µM) was 0.358 and the relative viability ([2]; first compound 0.05 µM) was 0.708. The relative viability ([2]; first compound 0.1581 µM) was 0.695, the relative viability ([2]; first compound 0.5 µM) was 0.626 and the relative viability ([2]; first compound 1.581 µM) was 0.596. For the same cell line, the relative viability ([2]; first compound 5 µM) was 0.58, the relative viability ([3]; first compound 0.05 µM) was 0.368 and the relative viability ([3]; first compound 0.1581 µM) was 0.457. It also gave a relative viability ([3]; first compound 0.5 µM) of 0.373, a relative viability ([3]; first compound 1.581 µM) of 0.349 and a relative viability ([3]; first compound 5 µM) of 0.319. For the same cell line, the relative viability ([4]; first compound 0.05 µM) was 0.531, the relative viability ([4]; first compound 0.1581 µM) was 0.572 and the relative viability ([4]; first compound 0.5 µM) was 0.48. For the same cell line, the relative viability ([4]; first compound 1.581 µM) was 0.469 and the relative viability ([4]; first compound 5 µM) was 0.474.

NCI-H1755 gave a relative viability ([1]; first compound 0.05 µM) of 0.472, a relative viability ([1]; first compound 0.1581 µM) of 0.411 and a relative viability ([1]; first compound 0.5 µM) of 0.452. The relative viability ([1]; first compound 1.581 µM) was 0.292, the relative viability ([1]; first compound 5 µM) was 0.334 and the relative viability ([2]; first compound 0.05 µM) was 1.03. For the same cell line, the relative viability ([2]; first compound 0.1581 µM) was 1.05, the relative viability ([2]; first compound 0.5 µM) was 0.817 and the relative viability ([2]; first compound 1.581 µM) was 0.873. For the same cell line, the relative viability ([2]; first compound 5 µM) was 0.879, the relative viability ([3]; first compound 0.05 µM) was 0.629 and the relative viability ([3]; first compound 0.1581 µM) was 0.664. It also gave a relative viability ([3]; first compound 0.5 µM) of 0.603, a relative viability ([3]; first compound 1.581 µM) of 0.652 and a relative viability ([3]; first compound 5 µM) of 0.597. For the same cell line, the relative viability ([4]; first compound 0.05 µM) was 0.518, the relative viability ([4]; first compound 0.1581 µM) was 0.511 and the relative viability ([4]; first compound 0.5 µM) was 0.416. It also gave a relative viability ([4]; first compound 1.581 µM) of 0.4 and a relative viability ([4]; first compound 5 µM) of 0.307.

NCI-H1792 gave a relative viability ([1]; first compound 0.05 µM) of 0.318, a relative viability ([1]; first compound 0.1581 µM) of 0.288 and a relative viability ([1]; first compound 0.5 µM) of 0.24. It also gave a relative viability ([1]; first compound 1.581 µM) of 0.241, a relative viability ([1]; first compound 5 µM) of 0.164 and a relative viability ([2]; first compound 0.05 µM) of 0.883. For the same cell line, the relative viability ([2]; first compound 0.1581 µM) was 0.887, the relative viability ([2]; first compound 0.5 µM) was 0.411 and the relative viability ([2]; first compound 1.581 µM) was 0.408. It also gave a relative viability ([2]; first compound 5 µM) of 0.488, a relative viability ([3]; first compound 0.05 µM) of 0.189 and a relative viability ([3]; first compound 0.1581 µM) of 0.345. It also gave a relative viability ([3]; first compound 0.5 µM) of 0.261, a relative viability ([3]; first compound 1.581 µM) of 0.203 and a relative viability ([3]; first compound 5 µM) of 0.236. The relative viability ([4]; first compound 0.05 µM) was 0.613, the relative viability ([4]; first compound 0.1581 µM) was 1.3 and the relative viability ([4]; first compound 0.5 µM) was 0.729. For the same cell line, the relative viability ([4]; first compound 5 µM) was 0.412.

With NCI-H1793 the relative viability ([1]; first compound 0.05 µM) was 0.306, the relative viability ([1]; first compound 0.1581 µM) was 0.411 and the relative viability ([1]; first compound 0.5 µM) was 0.308. The relative viability ([1]; first compound 1.581 µM) was 0.21, the relative viability ([1]; first compound 5 µM) was 0.191 and the relative viability ([2]; first compound 0.05 µM) was 0.773. For the same cell line, the relative viability ([2]; first compound 0.1581 µM) was 0.878, the relative viability ([2]; first compound 0.5 µM) was 0.709 and the relative viability ([2]; first compound 1.581 µM) was 0.666. The relative viability ([2]; first compound 5 µM) was 0.58, the relative viability ([3]; first compound 0.05 µM) was 0.322 and the relative viability ([3]; first compound 0.1581 µM) was 0.465. It also gave a relative viability ([3]; first compound 0.5 µM) of 0.435, a relative viability ([3]; first compound 1.581 µM) of 0.328 and a relative viability ([3]; first compound 5 µM) of 0.252. The relative viability ([4]; first compound 0.05 µM) was 0.598, the relative viability ([4]; first compound 0.1581 µM) was 0.466 and the relative viability ([4]; first compound 0.5 µM) was 0.422. For the same cell line, the relative viability ([4]; first compound 1.581 µM) was 0.397 and the relative viability ([4]; first compound 5 µM) was 0.183.

NCI-H1915 was tested, and the relative viability ([1]; first compound 0.05 µM) was 0.933, the relative viability ([1]; first compound 0.1581 µM) was 0.942 and the relative viability ([1]; first compound 0.5 µM) was 0.948. It also gave a relative viability ([1]; first compound 1.581 µM) of 0.896, a relative viability ([1]; first compound 5 µM) of 0.9 and a relative viability ([2]; first compound 0.05 µM) of 1.01. It also gave a relative viability ([2]; first compound 0.1581 µM) of 1.08, a relative viability ([2]; first compound 0.5 µM) of 1.03 and a relative viability ([2]; first compound 1.581 µM) of 1.08. It also gave a relative viability ([2]; first compound 5 µM) of 1.1, a relative viability ([3]; first compound 0.05 µM) of 0.344 and a relative viability ([3]; first compound 0.1581 µM) of 0.377. It also gave a relative viability ([3]; first compound 0.5 µM) of 0.36, a relative viability ([3]; first compound 1.581 µM) of 0.357 and a relative viability ([3]; first compound 5 µM) of 0.379. The relative viability ([4]; first compound 0.05 µM) was 0.666, the relative viability ([4]; first compound 0.1581 µM) was 0.67 and the relative viability ([4]; first compound 0.5 µM) was 0.718. The relative viability ([4]; first compound 1.581 µM) was 0.69 and the relative viability ([4]; first compound 5 µM) was 0.709.
